This is an account of results in patent EP0366451A2, “The use of oxidized polyamines, especially NN'-Bis-(3-propionaldehyde)-1-4-diaminobutane (sperminedialdehyde) as immunosuppressive agents” (ORTHO PHARMACEUTICAL CORPORATION, priority 1988, dated 1990).

For one data set, the system named is ALDH. The data set can be described thus: ALDH assay in the mitochondrial fraction of L1210/CPA or mouse liver. It is filed as biochemical. The settings on record: SDA up to 2.5 mM. On the procedure:
(§1) Cultured murine leukemic cells and livers (excised from mice immediately after cervical dislocation) were homogenized in 3 volumes of ice-cold 1.15% KCl and 1 mM EDTA. The homogenate was centrifuged at 100,000 g for 45 min and the resulting supernatant was used to measure cytosolic ALDH activity. For particulate ALDH assay, the pellet (and homogenate for total ALDH) was resuspended in homogenizing buffer and treated with 0.25% Triton X-100 for 30 min at 4°C. The solubilized preparations were centrifuged at 48,000 g for 30 min and the supernatants were drawn off for ALDH determinations.
(§2) ALDH activity was measured by monitoring the reduction of NAD or NADp for 5-6 min at […] at 37°C in DU70 spectrophotometer (Beckman). The assay mixture contained 50 mM potassium phosphate buffer, pH 7.4, 2.0 mM NAD (or NADP) and 1.0 mM EDTA. The reaction was started by adding the substrate (SDA or other aldehyde) to the prewarmed (5 min at 37°C) assay mixture containing enzyme preparation. Pyrazole (0.1 mM) was added particularly for liver enzyme, to inhibit alcohol dehydrogenase. The apparent Km and maximum velocity (Vmax) values were calculated using a Lineweaver-Burk plot based on the estimation of the slope by regression analysis. Enzyme activity was expressed as mU (nmoles/min) per mg of protein. Protein contents were determined by the Bradford method, using bovine serum albumin as the standard.

A further data set concerns Human T lymphocytes. Kind of data set: PHA driven human T cell proliferation after 1 hour incubation. It is filed as cell-based. The settings on record: 0.62 x 10⁻² mM, 1 hour at 37°C, washed; Figure 1. As to the method:
(§3) Human T & B lymphocytes were incubated separately with different concentrations of spermine dialdehyde in vitro for 1 hour. Cells were washed extensively and set up in a PHA (for T cell) or PWM (B cell) proliferation assay. A graph is depicted wherein percentage of response is plotted as a function of concentration of spermine dialdehyde.
(§4) Peripheral blood lymphocytes (PBL) were obtained from the blood of normal donors by using standard Ficoll-Hypaque gradient techniques. The T and non-T cells were separated by standard sheep red blood cell (SRBC) rosetting technique. Briefly, 5 x 10⁶/ml PBL were incubated with 1% neuraminidase-treated SRBC, and rosetted cells were separated from non-rosetted cells in a Ficoll-Hypaque gradient. The rosetted cells were designated as T cells. Purified B lymphocytes were obtained from non-rosetted cells by removal of residual T cells using the Pan T monoclonal antibody OKT 11 and complement.
(§5) T cell proliferation: 7 x 10⁴ - 10⁵ human T lymphocytes were cultured in flat bottom microtiter plates (Flow) in the presence of 0.1% PHA-P or 1/64 PWM for 4 days. 3H-thymidine (0.1 MCi/well) was added for the last 6 hours of the culture period. […] Cell associated radioactivity was determined by scintillation counting in an automated counter. All of the results were expressed as % response calculated according to the formula: [formula] […]

The test system of data set [1] is lethally irradiated AKR mice. The data set can be described thus: Bone marrow transplantation with ex vivo treated graft (GVHD, survival). It is filed as in vivo. On the procedure: C57BL spleen and bone marrow cell mixtures were treated with different concentrations of spermine dialdehyde or control preparation and injected i.v. into lethally irradiated AKR mice. A graph is depicted wherein percentage survival is scored as a function of time.
In bone marrow transplantation, bone marrow cells from normal donor mice were transplanted to totally histoincompatible and lethally irradiated recipients. All recipient mice received 9.5 Gy (950 rads) total body irradiation on day 0 and were then housed in microisolator cages thereafter. They were given autoclaved rodent laboratory chow throughout the whole study and also were allowed to feed ad libitum. Recipients also received 1.5 mg/kg of gentamicin subcutaneously for 20 days after irradiation. On the day of irradiation, bone marrow cells mixed in 3:1 ratio with spleen cells were removed from donors and incubated for an hour with different concentrations of spermine dialdehyde for 1 hour. Spleen cells were added to intensify subsequent graft vs. host disease (GVHD). After incubation, cells were washed 3 times and then injected intravenously into irradiated recipients. Signs of GVHD and survival were scored every day thereafter.
Bone marrow and spleen cell mixtures (3:1 ratio) from C57BL mice were incubated with control preparation or various concentrations of spermine dialdehyde for 1 hour Cells were then washed extensively and injected intravenously into lethally irradiated histoincompatible AKR mice. Signs of graft vs. host diseases such as hunched back, diarrhea, alopecia, and physical conditions were recorded daily. […] Thus treatment with lower doses of spermine dialdehyde inactivated T lymphocytes without being toxic to marrow celis and allowed animals to reconstitute with little sign of GVHD.

Another data set relates to Human B lymphocytes. Kind of data set: Pokeweed mitogen driven human B cell proliferation after 1 hour incubation. It is filed as cell-based. The note with it: compared with T cells; Figure 1. As to the method:
as §3, §4, §5

A further data set concerns cytosolic ALDH. Kind of data set: NAD-linked cytosolic ALDH assay, L1210/CPA cells. Format: biochemical, Murine. The note with it: as substrate, L1210/CPA cytosol. On the procedure:
as §1, §2

The target in data set [2] is T1, S-Adenosylmethionine Decarboxylase (AdoMet DC) (Mus musculus, UniProt P0DMN7).
T1 construct: endogenous in cells; host or cells: murine leukemic L1210 cells (supernatant)
T1 sequence (P0DMN7 68-334 limits assumed): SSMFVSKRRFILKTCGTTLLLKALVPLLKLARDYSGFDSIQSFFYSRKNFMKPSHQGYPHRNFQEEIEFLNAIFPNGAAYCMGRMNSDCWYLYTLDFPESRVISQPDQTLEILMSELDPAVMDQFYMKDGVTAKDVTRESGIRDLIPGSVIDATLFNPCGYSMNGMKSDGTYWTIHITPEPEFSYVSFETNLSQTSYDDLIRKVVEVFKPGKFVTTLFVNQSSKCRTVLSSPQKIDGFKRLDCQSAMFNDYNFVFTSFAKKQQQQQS
T1 sequence (P0DMN7 1-67 limits assumed): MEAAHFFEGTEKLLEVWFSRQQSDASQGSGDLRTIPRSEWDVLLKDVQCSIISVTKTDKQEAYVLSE
The data set can be described thus: AdoMet DC inhibition in L1210 cell supernatants ([14C]CO2 release). It is filed as biochemical, Murine. On the procedure: Murine leukemic L1210 cell supernatants were incubated with different concentrations of SDA or butyl dialdehyde, and AdoMet DC activity was estimated by monitoring the release of [¹⁴C] CO₂. Inhibition curves for both drugs were superimposable with IC₅₀ values of 0.12-0.13 x 10⁻³ M.

`O=CCCNCCCCNCCC=O` [SDA, NN′-Bis-(3-propionaldehyde)-1-4-diaminobutane]: the “ALDH activity in the mitochondrial fraction” value in the data set on ALDH is “could not be measured”. Also, the “inhibited T cell proliferation” value in the data set on Human T lymphocytes is on record as 85%. The “signs of GVHD” value in data set [1] (bone marrow treated ex vivo for 1 hour) was “only mild signs of GVHD”. Further, the survival time result in data set [1] (marrow treated ex vivo with lower doses (0.03-0.06), Figure 3) is “significantly prolonged survival time”. Besides, in data set [1] (very high dose groups of 0.2mM, ex vivo treatment), the marrow toxicity result is listed as “exhibited marrow toxicity”. The “suppression of B lymphocyte proliferation” value in the data set on Human B lymphocytes was “a much greater quantity was required”. Also, the Km in the data set on cytosolic ALDH (NAD, ± SEM, 3-4 experiments) turned out to be 41.6 µM. Further, the “Specific (activity of ALDH)” value in the data set on cytosolic ALDH (propionaldehyde 1.0 mM) is reported as 6.8 ± 1.6 mU/mg Protein. The “inhibition of AdoMet DC (in words)” value in data set [2] (Fig. 9 and Figure 10) is on record as “inhibited both of the key enzymes”. Besides, the IC50 in data set [2] (Figure 9, inhibition curves superimposable, read-out: IC₅₀ values) lay within 120 to 130 µM.
